{"source": "patent US20130203718A1", "about": "(priority 2010, published 2013)", "data": [{"molecular_target": "T1, hPRB and NCoR (Homo sapiens, UniProt P06401)", "T1 construct": "expressed in transfected cells; host or cells: HEK 293T", "T1 sequence (P06401 1-933)": "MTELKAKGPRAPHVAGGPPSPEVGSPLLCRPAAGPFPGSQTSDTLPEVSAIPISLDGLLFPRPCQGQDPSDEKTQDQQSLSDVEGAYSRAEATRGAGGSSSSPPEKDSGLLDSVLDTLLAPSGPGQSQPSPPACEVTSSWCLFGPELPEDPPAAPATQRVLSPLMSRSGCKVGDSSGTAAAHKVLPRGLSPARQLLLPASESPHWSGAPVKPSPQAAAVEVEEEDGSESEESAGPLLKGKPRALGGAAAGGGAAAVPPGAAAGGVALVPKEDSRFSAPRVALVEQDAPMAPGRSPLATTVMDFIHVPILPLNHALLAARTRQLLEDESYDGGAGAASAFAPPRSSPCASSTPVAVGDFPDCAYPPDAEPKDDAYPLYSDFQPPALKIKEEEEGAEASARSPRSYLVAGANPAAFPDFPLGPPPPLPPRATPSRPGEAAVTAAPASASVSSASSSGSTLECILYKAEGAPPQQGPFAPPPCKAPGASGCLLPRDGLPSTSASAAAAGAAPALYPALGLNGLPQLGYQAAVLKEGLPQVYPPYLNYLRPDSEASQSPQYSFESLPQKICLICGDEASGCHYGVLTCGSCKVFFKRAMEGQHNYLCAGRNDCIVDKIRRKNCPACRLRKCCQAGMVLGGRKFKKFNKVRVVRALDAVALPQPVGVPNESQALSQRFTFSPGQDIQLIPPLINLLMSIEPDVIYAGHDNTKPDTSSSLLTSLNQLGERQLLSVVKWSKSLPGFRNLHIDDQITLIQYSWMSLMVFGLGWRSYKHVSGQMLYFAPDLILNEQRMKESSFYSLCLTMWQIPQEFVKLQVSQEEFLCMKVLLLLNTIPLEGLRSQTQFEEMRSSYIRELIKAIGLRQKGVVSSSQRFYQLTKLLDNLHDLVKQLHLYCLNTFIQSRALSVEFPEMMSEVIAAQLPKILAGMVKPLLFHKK", "test": "Mammalian two hybrid assay, recruitment of co-repressor NCoR by hPRB", "assay_type": "cell-based", "conditions": "HEK293T, FIGS. 12 and 14", "method": "Mammalian Two Hybrid Assays.\nTo investigate whether hPR was able to recruit transcriptional corepressors upon APRn binding, two hybrid assays have been performed in HEK 293T cells. Cell transfection were carried out according to the protocol used for the PR transactivation assays, with 1 μg of pGAL4-SMRT or pGAL4-NcoR, 2.5 μg of the PR expression vector pV16-PR and 5 μg of the reporter pG5-luc. The plasmid pGAL4-SMRT and pGAL4-NcoR, provided by P. Balaguer, encode the fusion protein between the GAL4 DNA-binding domain (GAL4DBD) and the receptor interacting domain (RID) of the corepressor […], respectively. The expression vector pV16PR encodes the VP16 activation domain of herpes simplex virus fused to the entire hPR and pG5-luc, provided by P. Fuller, encodes the luciferase gene driven by a GAL4-responsive promoter. […] Cell transfection were carried out according to the PR transactivation assays, by using 2 μg of pM-TIF2/Nter-RID or […], 2 μg of the expression vector pV16PR and 5 μg of the reporter pG5luc. The plasmids pM-TIF2/Nter-RID encodes the fusion proteins between the GAL4 DBD and the 1-867 TIF2 sequence corresponding to the Nter and RID domains. The plasmids pMTIF2-Nter encodes the fusion proteins between the GAL4 DBD and the 1-623 TIF2 sequence corresponding to the Nter domain. After 16 h incubation, the transfected cells were washed with PBS containing 2.5 mM EDTA, trypsinized and replated in 24-well plates. […] Cells were lysed and the luciferase and activities were quantified by using a Mithras reader microplates (Berthold).\nBoth agonist- and antagonist-bound PR regulate gene transcription with the assistance of transcriptional co-repressors (NCoR, SMRT) or co-activators (namely, TIF-2). To characterize the mechanism by which APRn inactivate hPRB, the capacity of hPRB to recruit transcriptional co-regulators upon APRn binding has been evaluated. […]", "values": [{"smiles": "CC(=O)[C@H]1CC[C@H]2[C@@H]3CC=C4C[C@@H](F)CC[C@]4(C)[C@H]3CC[C@]12C", "note": "[APR-16, 3β-Fluoropregn-5-en-20-one]", "recruitment of co-repressor NCoR by hPRB upon ligand binding": "unable to recruit"}, {"smiles": "C[C@]12CCC3C(CC=C4C[C@@H](F)CC[C@@H]43)C1CCC2=O", "note": "(stereo partly drawn) [APR-47, 3β-Fluoro-19-nor-androst-5-en-17-one]", "recruitment of co-repressor NCoR by hPRB upon ligand binding": "unable to recruit"}, {"smiles": "CC#C[C@]1(O)CCC2C3CC[C@H]4CCCC[C@@H]4C3CC[C@@]21C", "note": "(stereo partly drawn) [APR-54, 17α-(1-Propynyl)-19-nor-5-androstan-17β-ol]", "recruitment of co-repressor NCoR by hPRB upon ligand binding": "unable to recruit"}]}]}
